Results as given in US20230173067A1 (Seagen Inc., priority 2020, published 2023).

Key:
[1] = test system: CTG-0138 esophageal cancer PDX model; assay: CTG-0138 HER2 positive esophageal cancer PDX model, tumor growth inhibition; type: in vivo, Mice
Experimental: (§1) The TGI index is calculated for a particular time point (e.g., a specific number of days into an experiment or clinical trial) according to the following formula: […]
(§2) where “Tx Day 0” denotes the first day that treatment is administered (i.e., the first day that an experimental therapy or a control therapy (e.g., vehicle only) is administered) and “Tx Day X” denotes X number of days after Day 0. […] As a non-limiting example, in an experiment where study day 0 corresponds to “Tx Day 0” and the TGI index is calculated on study day 28 (i.e., “Tx Day 28”), if the mean tumor volume in both groups on study day 0 is 250 mm^3 and the mean tumor volumes in the experimental and control groups are 125 mm^3 and 750 mm^3, respectively, then the TGI index on day 28 is 125%.
(§3) Tucatinib was administered orally at a dose of 50 mg/kg twice per day for 28 days (study days 0-27). […] A vehicle-only group was included as a negative control.

[2] = test system: GXA 3054 gastric cancer PDX model; assay: GXA 3054 HER2 positive gastric cancer PDX model, tumor growth inhibition; type: in vivo, Mice
Experimental: as §1, §2, §3

[3] = test system: CTG-0784 CRC PDX model; assay: CTG-0784 HER2 positive CRC PDX model, tumor growth inhibition; type: in vivo, Mice
Experimental: as §1, §2, §3

[4] = test system: CTG-0137 esophageal cancer PDX model; assay: CTG-0137 HER2 positive esophageal cancer PDX model, tumor growth inhibition; type: in vivo, Mice
Experimental: as §1, §2, §3

[5] = test system: GXA 3038 gastric cancer PDX model; assay: GXA 3038 HER2 positive gastric cancer PDX model, tumor growth inhibition; type: in vivo, Mice
Experimental: as §1, §2, §3

[6] = test system: CTG-0383 CRC PDX model; assay: CTG-0383 HER2 positive CRC PDX model, tumor growth inhibition; type: in vivo, Mice
Experimental: as §1, §2, §3

[7] = test system: GXA 3039 gastric cancer PDX model; assay: GXA 3039 HER2 positive gastric cancer PDX model, tumor growth inhibition; type: in vivo, Mice
Experimental: as §1, §2, §3

[8] = test system: Calu-3 cells; assay: Response of Calu-3 cells to tucatinib in vitro; type: cell-based; details: previously demonstrated
[9] = test system: CTG-0927 HER2 positive cholangiocarcinoma PDX model; assay: CTG-0927 HER2 positive cholangiocarcinoma PDX model, tumor growth inhibition; type: in vivo, Mice; details: CTG-0927 cholangiocarcinoma PDX model
Experimental: as §1, §2, §3

[10] = test system: CTG-0121 CRC PDX model; assay: CTG-0121 HER2 positive CRC PDX model, tumor growth inhibition; type: in vivo, Mice
Experimental: as §1, §2, §3

[11] = test system: NCI-H2170 NSCLC xenograft model; assay: NCI-H2170 HER2 positive NSCLC xenograft model, tumor growth inhibition; type: in vivo, Mice
Experimental: as §1, §2
(§4) For the Calu-3 study, tucatinib was administered orally at a dose of 50 mg/kg twice per day for 21 days, beginning on study day 7. […] A vehicle-only group was included as a negative control.
For the NCI-H2170 study, tucatinib was administered orally at a dose of 50 mg/kg twice per day for 21 days, beginning on study day 18. […] A vehicle-only group was included as a negative control.

[12] = test system: NCI-H2170 cells; assay: Response of NCI-H2170 cells to tucatinib in vitro; type: cell-based; details: previously demonstrated
[13] = test system: Calu-3 NSCLC xenograft model; assay: Calu-3 HER2 positive NSCLC xenograft model, tumor growth inhibition; type: in vivo, Mice
Experimental: as §1, §2, §4

`Cc1cc(Nc2ncnc3ccc(NC4=NC(C)(C)CO4)cc23)ccc1Oc1ccn2ncnc2c1` [Tucatinib, tucatinib] was tested, and the “effect on tumor growth (in words)” value [1] was “inhibited tumor growth”, the “effect on tumor growth (in words)” value [2] was “inhibited tumor growth” and the “effect on tumor growth (in words)” value [3] was “inhibited tumor growth”. For the same compound, the “effect on tumor growth (in words)” value [4] was “inhibited tumor growth”, the “effect on tumor growth (in words)” value [5] was “inhibited tumor growth” and the “effect on tumor growth (in words)” value [6] was “inhibited tumor growth”. The “effect on tumor growth (in words)” value [7] was “inhibited tumor growth”, the “response to tucatinib in vitro” value [8] was “good responses” and the “effect on tumor growth (in words)” value [9] was “inhibited tumor growth”. For the same compound, the “effect on tumor growth (in words)” value [10] was “inhibited tumor growth”, the “effect on tumor growth (in words)” value [11] was “inhibited tumor growth” and the “response to tucatinib in vitro” value [12] was “good responses”. For the same compound, the “effect on tumor growth (in words)” value [13] was “inhibited tumor growth”.
